From ChEMBL document CHEMBL1137415, “Structure-activity relationship of 6-methylidene penems bearing 6,5 bicyclic heterocycles as broad-spectrum beta-lactamase inhibitors: evidence for 1,4-thiazepine intermediates with C7 R stereochemistry by computational methods” (J Med Chem, 2006)
In brackets after ≈: the same amount, converted by molar mass.

Legend:
[1] = test system: Enterobacter cloacae; experiment: Antibacterial activity against Enterobacter cloacae expressing P99; type: functional
[2] = test system: Pseudomonas aeruginosa; experiment: Antibacterial activity against Pseudomonas aeruginosa expressing AmpC; type: functional
[3] = test system: Serratia marcescens; experiment: Antibacterial activity against Serratia marcescens expressing AmpC and Smel; type: functional
[4] = target: Beta-lactamase TEM (Escherichia coli, UniProt P62593); experiment: Inhibition of Escherichia coli TEM1
Beta-lactamase TEM, sequence (P62593 whole entry): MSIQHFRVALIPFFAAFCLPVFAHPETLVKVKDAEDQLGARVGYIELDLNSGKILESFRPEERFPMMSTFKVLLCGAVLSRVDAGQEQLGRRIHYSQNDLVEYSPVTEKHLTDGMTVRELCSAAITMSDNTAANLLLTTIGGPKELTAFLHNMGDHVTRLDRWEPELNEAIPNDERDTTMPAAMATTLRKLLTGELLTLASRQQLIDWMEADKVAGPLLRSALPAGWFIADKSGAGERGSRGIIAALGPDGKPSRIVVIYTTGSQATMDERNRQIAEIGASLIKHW

[5] = target: T1, Imipenem-hydrolyzing beta-lactamase (Enterobacter cloacae, UniProt P52663); experiment: Inhibition of Enterobacter cloacae Imi1
T1 sequence (P52663 whole entry): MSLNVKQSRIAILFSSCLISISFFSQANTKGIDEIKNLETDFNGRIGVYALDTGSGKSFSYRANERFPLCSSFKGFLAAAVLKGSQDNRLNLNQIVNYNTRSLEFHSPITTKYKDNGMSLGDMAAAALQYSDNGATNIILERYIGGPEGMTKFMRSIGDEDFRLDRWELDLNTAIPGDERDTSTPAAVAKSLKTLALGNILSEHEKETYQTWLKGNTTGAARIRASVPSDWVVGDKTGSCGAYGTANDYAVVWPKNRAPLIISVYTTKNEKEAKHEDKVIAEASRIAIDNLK

[6] = target: Metallo-beta-lactamase type 2 (Bacteroides fragilis, UniProt P25910); experiment: Inhibition of Bacteroides fragilis CcrA
Metallo-beta-lactamase type 2, sequence (P25910 whole entry): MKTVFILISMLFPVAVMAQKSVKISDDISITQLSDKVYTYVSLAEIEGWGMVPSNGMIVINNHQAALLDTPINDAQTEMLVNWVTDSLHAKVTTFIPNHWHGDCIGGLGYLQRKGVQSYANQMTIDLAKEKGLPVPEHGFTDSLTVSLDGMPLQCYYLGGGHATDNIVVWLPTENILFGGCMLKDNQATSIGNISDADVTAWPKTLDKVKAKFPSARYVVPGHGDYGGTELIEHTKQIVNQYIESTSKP

[7] = target: Beta-lactamase TEM (Escherichia coli) (UniProt P62593); experiment: Antibacterial activity against Escherichia coli expressing TEM1; type: functional
Beta-lactamase TEM (Escherichia coli), sequence (P62593 whole entry): as the sequence (P62593 whole entry) above

[8] = test system: Escherichia coli; experiment: Antibacterial activity against Escherichia coli expressing TEM1 in iv dosed murine acute lethal infection model in presence of piperacillin; type: functional
[9] = target: Beta-lactamase (Enterobacter cloacae, UniProt P05364)
Beta-lactamase, sequence (P05364 whole entry): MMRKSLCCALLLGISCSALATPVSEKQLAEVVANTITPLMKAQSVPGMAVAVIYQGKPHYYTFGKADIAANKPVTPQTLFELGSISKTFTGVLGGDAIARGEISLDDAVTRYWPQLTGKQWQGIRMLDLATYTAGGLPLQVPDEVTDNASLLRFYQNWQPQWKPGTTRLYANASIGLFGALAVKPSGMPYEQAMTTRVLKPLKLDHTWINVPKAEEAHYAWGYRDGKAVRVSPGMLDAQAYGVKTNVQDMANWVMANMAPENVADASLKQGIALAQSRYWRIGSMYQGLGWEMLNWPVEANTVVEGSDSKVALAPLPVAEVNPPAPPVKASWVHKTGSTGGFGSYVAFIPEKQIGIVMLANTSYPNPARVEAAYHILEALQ
Description: Inhibition of Enterobacter cloacae AmpC

[10] = test system: Klebsiella aerogenes; experiment: Antibacterial activity against Enterobacter aerogenes expressing AmpC in iv dosed murine acute lethal infection model in presence of piperacillin; type: functional
[11] = test system: Escherichia coli; experiment: Antibacterial activity against Escherichia coli expressing TEM1 in iv dosed murine acute lethal infection model; type: functional
[12] = test system: Klebsiella aerogenes; experiment: Antibacterial activity against Enterobacter aerogenes expressing AmpC in iv dosed murine acute lethal infection model; type: functional
[13] = Inhibition of SHV1
[14] = Inhibition of GC1

`O=C([O-])C1=CS[C@@H]2/C(=C\c3cc4n(n3)CCCO4)C(=O)N12.[Na+]` showed an MIC [1] of 4 µg/mL, an MIC [2] of 1 µg/mL and an MIC [3] of 1 µg/mL. The IC50 [4] was 6 nM, the IC50 [5] was 413 nM and the IC50 [6] was 140 nM. The MIC [7] was 4 µg/mL, the ED50 [8] was 90 mg/kg and the IC50 [9] was 5 nM.

Molecule `O=C([O-])C1=CS[C@@H]2/C(=C\c3cc4n(n3)CCNC4)C(=O)N12.[Na+]` has an MIC [1] of 16 µg/mL, an MIC [2] of 0.5 µg/mL and an MIC [3] of 1 µg/mL. It also gave an IC50 [4] of 1 nM, an IC50 [5] of 123 nM and an MIC [7] of 4 µg/mL. It also gave an ED50 [8] of 30 mg/kg and an IC50 [9] of 3 nM.

In the case of `O=C([O-])C1=CS[C@@H]2/C(=C\c3cc4n(n3)CCCC4)C(=O)N12.[Na+]`, the MIC [1] is reported as 4 µg/mL, the MIC [2] is reported as 4 µg/mL and the MIC [3] is reported as 1 µg/mL. The IC50 [4] was 2 nM, the IC50 [5] was 90 nM and the MIC [7] was 2 µg/mL. The ED50 [10] was 86 mg/kg, the ED50 [8] was 28 mg/kg and the IC50 [9] was 3 nM.

Molecule `O=C([O-])C1=CS[C@@H]2/C(=C\c3cc4n(n3)CCSC4)C(=O)N12.[Na+]` has an MIC [1] of 8 µg/mL, an MIC [2] of 2 µg/mL and an MIC [3] of 0.5 µg/mL. The IC50 [5] was 18 nM, the MIC [7] was 4 µg/mL and the ED50 [10] was 123 mg/kg. The ED50 [8] was 31 mg/kg and the IC50 [9] was 1 nM.

`O=C([O-])C1=CS[C@@H]2/C(=C\c3cc4n(n3)CCS(=O)(=O)C4)C(=O)N12.[Na+]` showed an MIC [1] of 16 µg/mL, an MIC [2] of 2 µg/mL and an MIC [3] of 1 µg/mL. The IC50 [4] was 1 nM, the IC50 [5] was 56 nM and the IC50 [6] was 43 nM. For the same molecule, the MIC [7] was 4 µg/mL, the ED50 [8] was 64 mg/kg and the IC50 [9] was 2 nM.

For `CCN1CCN(C(=O)NC(C(=O)N[C@@H]2C(=O)N3C2SC(C)(C)[C@@H]3C(=O)O)c2ccccc2)C(=O)C1=O` (single isomer, unassigned) [PIPERACILLIN], the ED50 [11] was 165 mg/kg and the ED50 [12] was 421 mg/kg.

For `C[C@]1(Cn2ccnn2)[C@H](C(=O)O)N2C(=O)C[C@H]2S1(=O)=O` [TAZOBACTAM], the MIC [1] was 64 µg/mL (≈ 213 µM), the MIC [2] was 64 µg/mL (≈ 213 µM) and the MIC [3] was 1 µg/mL (≈ 3.33 µM). It also gave an MIC [7] of 2 µg/mL (≈ 6.66 µM).

Work on `COc1ccc(CN2CCc3sc(/C=C4/C(=O)N5C(C(=O)[O-])=CS[C@H]45)cc3C2)cc1.[Na+]` yielded an MIC [1] of 32 µg/mL, an MIC [2] of 32 µg/mL and an MIC [3] of 1 µg/mL. The IC50 [4] was 2 nM, the IC50 [5] was 27 nM and the IC50 [6] was 78 nM. The MIC [7] was 8 µg/mL and the IC50 [9] was 15 nM.

Work on `O=C([O-])C1=CS[C@@H]2/C(=C/c3cn4c(n3)CNCC4)C(=O)N12.[Na+]` yielded an MIC [1] of 2 µg/mL, an MIC [2] of 16 µg/mL and an MIC [3] of 1 µg/mL. The IC50 [4] was 5 nM, the IC50 [5] was 28 nM and the IC50 [6] was 320 nM. The MIC [7] was 2 µg/mL, the ED50 [8] was 27 mg/kg and the IC50 [9] was 6 nM.

In the case of `O=C([O-])C1=CS[C@@H]2/C(=C/c3cn4c(n3)COCC4)C(=O)N12.[Na+]`, the MIC [1] is reported as 8 µg/mL, the MIC [2] is reported as 1 µg/mL and the MIC [3] is reported as 1 µg/mL. For the same molecule, the IC50 [13] was 9 nM, the IC50 [14] was 6.2 nM and the IC50 [4] was 0.4 nM. For the same molecule, the IC50 [5] was 8 nM, the IC50 [6] was 66 nM and the MIC [7] was 2 µg/mL. For the same molecule, the ED50 [10] was 96 mg/kg, the ED50 [8] was 23 mg/kg and the IC50 [9] was 5 nM.

Work on `O=C([O-])C1=CS[C@@H]2/C(=C\c3cc4c(s3)CCN(Cc3cccnc3)C4)C(=O)N12.[Na+]` yielded an MIC [1] of 64 µg/mL, an MIC [2] of 64 µg/mL and an MIC [3] of 1 µg/mL. The IC50 [4] was 10 nM, the IC50 [5] was 40 nM and the MIC [7] was 32 µg/mL.

Molecule `O=C([O-])C1=CS[C@@H]2/C(=C\c3cc4n(n3)CCOC4)C(=O)N12.[Na+]` has an MIC [1] of 8 µg/mL, an MIC [2] of 2 µg/mL and an MIC [3] of 1 µg/mL. It also gave an IC50 [4] of 4 nM, an IC50 [5] of 20 nM and an MIC [7] of 4 µg/mL. The ED50 [8] was 19 mg/kg and the IC50 [9] was 6 nM.

`O=C([O-])C1=CS[C@@H]2/C(=C\c3cn4c(n3)CSCC4)C(=O)N12.[Na+]` gave an MIC [1] of 8 µg/mL, an MIC [2] of 8 µg/mL and an MIC [3] of 8 µg/mL. It also gave an IC50 [4] of 3 nM, an IC50 [5] of 2300 nM and an IC50 [6] of 8 nM. For the same molecule, the MIC [7] was 8 µg/mL and the IC50 [9] was 2 nM.

`CN1CCn2cc(/C=C3/C(=O)N4C(C(=O)[O-])=CS[C@H]34)nc2C1.[Na+]` showed an MIC [1] of 1 µg/mL, an MIC [2] of 4 µg/mL and an MIC [3] of 1 µg/mL. For the same molecule, the IC50 [4] was 4 nM, the IC50 [5] was 22 nM and the MIC [7] was 16 µg/mL. It also gave an IC50 [9] of 6 nM.

Work on `O=C([O-])C1=CS[C@@H]2/C(=C/c3cn4c(n3)CSCC4)C(=O)N12.[Na+]` yielded an MIC [1] of 32 µg/mL, an MIC [2] of 64 µg/mL and an MIC [3] of 4 µg/mL. The IC50 [4] was 730 nM, the IC50 [5] was over 10000 nM and the IC50 [6] was 110 nM. The MIC [7] was 64 µg/mL and the IC50 [9] was 420 nM.
